Measurements as given in patent publication US10736902B2, “Method of treating triple negative breast cancer” (GEISTLICH PHARMA AG, priority 2016, dated 2020).
Like-named read-outs stand apart in the source and are kept apart here.

Key:
[1] = test system: human peripheral blood monocytes; assay: Safety in non-neoplastic cells: cell death of monocytes; type: cell-based; conditions: for cell death in human peripheral blood monocytes: 100 microMol up to 5000 microMol; for effect on peripherally derived human monocytes: high doses (5 mM), after 24 hours (FIG. 7B)
[2] = Water solubility / isotonicity; type: physicochemical
[3] = Half-life in human fresh blood at 37° C.; type: in vitro ADME; conditions: for half-life: human, fresh whole blood
Experimental: The half-life of 2250 was measured in human fresh blood at 37° C.

[4] = test system: ER negative breast cancer cells (BT-20 and MDA-MB-231) and ER positive cells (BT-474 and MCF-7); assay: Apoptosis/necrosis (annexin V / propidium iodide) and ROS in breast cancer cells; type: cell-based; conditions: for dose dependence of cell death: ER-positive and ER-negative breast cancer cells, increasing concentrations, most pronounced with TNBC cells; for generation of ROS: substantially reduced by NAC, significantly increased with BSO
Experimental: Methods: Primary and metastatic ER negative breast cancer cells (BT-20 and MDA-MB-231) and ER positive cells (BT-474 and MCF-7) were separately treated with increasing concentrations of Taurolidine and 2250 as shown in FIG. 7A and FIG. 8A. Apoptosis and necrosis were evaluated based on phosphatidylserine externalization using annexin V and propidium iodide (PI). The contribution of caspases 3, 8 and 9 on apoptosis, and autophagy was evaluated by both flow cytometry and western blotting. The impact of reactive oxygen species (ROS) was evaluated using the radical scavenger agent n-acetylcysteine (NAC) and buthionine-sulfoximine (BSO), a glutathione-depleting agent. Necroptosis was evaluated using nescrostatin-1, a potent inhibitor of the process.

[5] = Wound healing after administration during or after surgery; conditions: administered during surgery and immediately after surgery
[6] = test system: tumor stem cells; assay: Tumor stem cell killing in tissue culture in vitro; type: cell-based

SMILES | cell death in human peripheral blood monocytes [1] | effect on peripherally derived human monocytes [1] | solubility in water ([2]; no PVP necessary) | concentration of isotonic solution ([2]; solution) | Concentration of 2250 measured ([3]; human fresh blood, 37° C., 0-1 hours) | Concentration of 2250 measured ([3]; human fresh blood, 37° C., 2 hours) | half-life ([3]; human blood, read-out: half-life in human blood) | half-life ([3]; human fresh blood, 37° C., calculated from measured concentrations, read-out: half-life (calculated) (converted)) | dose dependence of cell death [4] | generation of ROS [4] | effect on wound healing [5] | killing of tumor stem cells [6] | concentration effective at killing tumor stem cells ([6]; tissue culture in vitro) | half-life ([3]; human blood, same test, read-out: half-life in human blood)
O=S1(=O)CCOCN1 [C-2250, Tetrahydro1,4,5-oxathiazin-4-dioxide] | did not induce any significant cell death | no significant effect | very soluble in water | 3.2% | 50 ppm | 47.7 ppm | > 1440 min | ~2400 min | Dose-dependent increases in cell death | induced generation of ROS | do not hinder wound healing | – | – | –
O=S1(=O)CCN(CN2CCS(=O)(=O)NC2)CN1 [taurolidine, reference compound] | did not induce any significant cell death | no significant effect | – | – | – | – | – | – | Dose-dependent increases in cell death | induced generation of ROS | – | kill tumor stem cells | 0.01 µg/mL | ~30 min
O=S1(=O)CCNCN1 [taurultam] | – | – | – | – | – | – | – | – | – | – | – | kill tumor stem cells | – | –
